Results taken from US10722886B2, “Apparatus for separating fine particles and separating method using same” (UNIVERSITY-INDUSTRY COOPERATION GROUP OF KYUNG HEE …, priority 2014, dated 2020).

Tested on: Jurkat cell
Assay: Cytotoxicity experiment (LDH analysis) on Jurkat cells exposed to Triton X-100
Assay type: cell-based
Conditions: Jurkat cell exposed to Triton X-100 (0 to 0.1%) for 30 min in CO2 incubator; LDH in separated culture medium, absorbance at 490 nm
Method: After the cell treated using Triton X-100 according to the Example of the present invention was separated using the apparatus for separating the microparticles, the apparatus fastened to the 1 mL syringe, and the conventional centrifuge, the cytotoxicity (%) was measured from the collected cell culture medium.
Specifically, a Jurkat cell was cultured in RPMI (WELGENE Inc., Korea) suspended using a 10% FBS (WELGENE) and a 1% antibiotic solution containing penicillin and streptomycin (WELGENE). In order to visualize the flow of the cell, the cell was washed with DPBS (WELGENE) and then dyed using a 10 μM CFDA cell tracer (Invitrogen) at room temperature for 15 min. After the dyeing, the cell was washed twice with DPBS.
The Jurkat cell was exposed to Triton X-100 at various concentrations (0 to 0.1%) in a CO2 incubator for 30 min. Subsequently, the fluid from which the microparticles were separated was obtained using the apparatus for separating the microparticles, to which the syringe was fastened, according to the present invention (manual injection at room temperature for 3 min), and the centrifuge (at 1000 rpm and room temperature for 5 min). […] The lactate dehydrogenase (LDH) analysis was performed in accordance with the manufacturer's directions (#88953, Pierce, Rockford, Ill.), and the absorbance was then measured at 490 nm. […]

Substance: Triton X-100
- IC50 value of Triton X-100 (cytotoxicity, LDH analysis): 0.0076%
